# No end group written: not given here.
# Biological target: APC (Homo sapiens, UniProt P04070)
# Assay: inhibition of APC by recombinant mutant (Arg358)-α1-antitrypsin, time course
# Assay type: biochemical
# Parameters: Protein C consists of a 155 amino acid residue light chain and a 262 amino acid residue heavy chain; from tissue; alpha1-AT mutant from Transgene, Strasbourg
# Details: 250 μM PC311-325, 500 μM PC142-155; 18 nM APC, 100 nM α1-AT
# Method: Kinetic studies of inhibition of APC were performed with the higher affinity mutant α1 -AT pseudo-substrate. For the assay, 60 μl of 36 nM APC and/or 60 μl of 200 nM recombinant (Arg^358)-α1 -AT prepared in TBS-BSA at pH 7.4 containing 0.02% NaN3 and 2 mM CaCl2 were separately admixed with 500 μM PC311-325 or 1 mM PC142-155 and maintained for 30 minutes at 37° C. to form APC-peptide and/or α1 -AT-peptide admixtures for each peptide tested, respectively. Thereafter, the peptide-treated APC and α1 -AT admixtures were combined to form a reaction admixture. At selected time points, 8 μl aliquots from the reaction admixture were removed and admixed with 300 μl 0.8 mM S-2366 in TBS-BSA at pH 8.0 containing 0.02% NaN3 to initiate the hydrolysis of S-2366 by APC. The change in absorbance was measured over time as described in the amidolytic assay. […]
# Since the number of amino acid residues involved in neutralization of APC by macromolecular plasma protease inhibitors is likely to be higher than the number of residues of APC involved in the cleavage of a small chromogenic substrate such as S-2366, the effect of anti-PC317-331 antibody on the time course of inhibition of APC by a larger pseudo-substrate, such as recombinant mutant (Arg^358)-α1 -AT was evaluated. […] The change in absorbance was measured over time as described in the amidolytic assay. […]
# Chain of APC (P04070 43-197): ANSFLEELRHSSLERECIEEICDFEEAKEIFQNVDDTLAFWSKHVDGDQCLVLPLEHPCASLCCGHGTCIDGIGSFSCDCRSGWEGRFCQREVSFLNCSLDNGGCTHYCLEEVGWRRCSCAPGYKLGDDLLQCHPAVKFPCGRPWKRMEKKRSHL
# Chain of APC (P04070 212-461): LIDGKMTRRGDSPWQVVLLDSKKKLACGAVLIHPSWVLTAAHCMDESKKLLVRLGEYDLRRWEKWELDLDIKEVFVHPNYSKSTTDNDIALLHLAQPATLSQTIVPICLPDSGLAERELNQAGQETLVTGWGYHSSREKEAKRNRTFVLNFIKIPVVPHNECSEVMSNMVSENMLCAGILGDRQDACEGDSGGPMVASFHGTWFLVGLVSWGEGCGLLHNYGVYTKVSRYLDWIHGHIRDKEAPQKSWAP
substance,measurement,value
"KRNRTFVLNFIKIPV-NH2 [PC311-325, Lys-Arg-Asn-Arg-Thr-Phe-Val-Leu-Asn-Phe-Ile-Lys-Ile-Pro-Val]",effect on the time course of inhibition of APC by recombinant (Arg358)α1-AT,did not have any significant effect

# Reference: patent US5968751A, “Method for detecting the presence of protein C antibody in a fluid sample” (The Scripps Research Institute, priority 1997, dated 1999)
